Data as given in patent US20070197452A1, “Treatment of amyloid-related diseases” (priority 2006, published 2007).

How the values were obtained:
[1] = tested on: TgCRND8 mice; experiment: Cerebral amyloid plaque burden (anti-Aβ immunostaining, image analysis); assay type: in vivo, mouse; settings: TgCRND8 mice at six months of age; vs untreated
Description: Cerebral amyloid burden. […] To generate sets of systematic uniform random sections, 5 μm serial sections were collected across the entire hemisphere. Sets of sections at 50 μm intervals were used for analyses (10-14 sections/set). Plaques were identified after antigen retrieval with formic acid, and incubation with primary anti-Aβ antibody (Dako M-0872), followed by secondary antibody (Dako StreptABCcomplex/horseradish kit). End products were visualized with DAB and were counter-stained with luxol fast blue. Amyloid plaque burden was assessed with Leco IA-3001 image analysis software interfaced with Leica microscope and Hitachi KP-M1U CCD video camera. Openlab imaging software (Improvision, Lexington, Mass.) was then used to convert micrographs to binary images for plaque number and plaque area determinations. Vascular amyloid burden was defined as amyloid originating from or surrounding blood vessels and was analysed similarly. Cerebral Aβ burden. […] Sets of sections at […] intervals for analyses (10-14 sections per set) were used. Plaques with primary Aβ-specific antibody (Dako M-0872) were identified and visualized with DAB. AP plaque burden was assessed with Openlab imaging software (Improvision) and used to convert micrographs to binary images for determinations of plaque number and plaque area. Vascular Aβ burden was defined as Aβ plaques originating from or surrounding blood vessels and was analyzed similarly. Cerebral Aβ burden. […] To generate sets of systematic uniform random sections, 5 μm serial sections were collected across the entire hemisphere. Sets of sections at 50 μm intervals were used for analyses (10-14 sections/set). Plaques were identified after antigen retrieval with formic acid, and incubation with primary anti-Aβ antibody (Dako M-0872), followed by secondary antibody (Dako StreptABCcomplex/horseradish kit). End products were visualized with DAB and were counter-stained with luxol fast blue. Aβ plaque burden was assessed with Leco IA-3001 image analysis software interfaced with Leica microscope and Hitachi KP-M1U CCD video camera. Openlab imaging software (Improvision, Lexington, Mass.) was then used to convert micrographs to binary images for plaque number and plaque area determinations. Vascular Aβ burden was defined as Aβ plaques originating from or surrounding blood vessels and was analyzed similarly.

[2] = tested on: TgCRND8 mice; experiment: Morris water maze spatial reference memory test; assay type: in vivo, mouse; settings: prophylactic, 6 weeks to 6 months of age
Description: Behavioural tests: Morris Water Maze testing was performed as previously described. After non-spatial pre-training, mice underwent place discrimination training for 5 days with 4-trials per day, followed by a cued visible platform to rule out general motivational, learning deficits and motor problems, and a probe trial to evaluate memory. […] Open field test for motor activity was preformed as described previously. Duration of walking, pausing and grooming were analyzed as indices of spontaneous locomotor activity. Sensorimotor function was examined with an EconomexTM accelerating rotarod (Columbus Instruments, Columbus, Ohio), as described elsewhere. The rod was set to accelerate at a rate of 0.2 r.p.m./s, from an initial, constant speed of 5 r.p.m. Latency to fall was recorded in four daily trials, conducted at 30 min intervals. All mice were trained for seven days before testing. The test day performance score for each animal was obtained by summing its latency to fall over the four trials Behavioral tests. Morris water maze testing was carried out as previously described. After nonspatial pretraining, mice underwent place discrimination training for 5 d with four trials per day, followed by a cued visible platform trial and a probe trial. An open-field test for motor activity was carried out as described previously. Sensorimotor function was assessed with an Economex accelerating rotarod (Columbus Instruments) as previously described. Behavioural tests. Morris Water Maze testing was performed as previously described. After non-spatial pre-training, mice underwent place discrimination training for 5 days with 4-trials per day, followed by a cued visible platform to rule out general motivational, learning deficits and motor problems, and a probe trial to evaluate memory. The probe trial was conducted at 72 h after the last testing, and used an annulus-crossing index to assess spatial recall. The annulus-crossing index measures the number of passes over the original platform position relative to passes over the other three quadrants. […] Open field test for motor activity was performed as described previously

[3] = tested on: TgCRND8 mice; experiment: Survival census (Kaplan-Meier); assay type: in vivo, mouse; settings: prophylactic treatment, vs untreated, n=35 per group
Description: (§1) Survival Census: The probability of survival was assessed by the Kaplan-Meier technique, computing the probability of survival at every occurrence of death, thus making it suitable for small sample sizes. For the analyses of survival, 35 mice were used for each treatment group. The Tarone-Ware test was used to assess effects of treatments.
as §1, with “census.” for “Census:”, “using” for “by”

[4] = Pilot in vivo studies; settings: data not shown
[5] = 6-18 grams/day/adult or 86-257 mg/Kg/day; cited from earlier work
[6] = molecular target: Aβ (Homo sapiens, UniProt P05067); settings: reference [11]; cited from earlier work
[7] = tested on: mouse model of Huntington disease; settings: oral administration; reference [26]; cited from earlier work

Aβ, sequence (P05067 672-713 limits assumed): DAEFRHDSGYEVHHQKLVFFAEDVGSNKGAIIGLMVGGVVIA

OC[C@@H](O)[C@@H](O)[C@H](O)[C@H](O)CO [mannitol, reference compound]
plaque count as measure of total plaque burden [1]: indistinguishable from untreated TgCRND8 mice | cognitive performance compared with non-Tg littermates [2]: significantly different from mannitol treated non-Tg littermates | cognitive performance compared with untreated TgCRND8 mice [2]: no effect on behavior | cognitive performance compared with untreated TgCRND8 mice ([2]; listed as Mannitol): not significantly different from untreated TgCRND8 mice | survival (Kaplan-Meier cumulative survival) [3]: not significantly different

O[C@H]1[C@H](O)[C@@H](O)[C@H](O)[C@@H](O)[C@H]1O [myo-cyclohexanehexol, 1,2,3,5/4,6-(myo-) cyclohexanehexol]
benefit in pilot in vivo studies [4]: no significant benefit | toxicity [5]: no toxicity | effectiveness in prior in vitro studies [6]: only weakly effective

OC[C@H]1O[C@H](O[C@H]2O[C@H](CO)[C@@H](O)[C@H](O)[C@H]2O)[C@H](O)[C@@H](O)[C@@H]1O [trehalose]
effects in mouse model of Huntington disease [7]: decreased polyglutamine aggregates in brain, improved motor dysfunction and extended lifespan
